{"source": "patent US20250304973A1", "about": "“HIGH-AFFINITY THROMBIN APTAMERS AND METHODS OF USE” (Ayass Bioscience LLC, priority 2024, published 2025)", "key": {"[1]": {"target": "T1, Factor II activity (Homo sapiens, UniProt P00734)", "T1 construct": "tissue Rockland Immunochemicals, Inc R214-0050; host or cells: human citrated plasma / whole blood", "assay": "Factor II activity assay in human citrated plasma (ACLTOP analyzer)", "type": "biochemical", "details": "for impact of modified aptamer on Factor II activity: 2 uM modified aptamer, 1 hour room temperature plus 2-hour incubation, versus unmodified aptamer; for reduction in Factor II activity: 2 uM, 2 h, normalized against untreated control", "experimental": "(§1) Plasma was prepared by centrifugation for 10 min at 2000×g. In vitro activity assays were performed on ACLTOP analyzer manufactured by Instrumentation Laboratory, which is a type of coagulation analyzer commonly used in clinical laboratories to measure clotting times and assess coagulation parameters. The ACLTOP analyzer is designed to perform a wide range of coagulation tests, including Factor II activity, prothrombin time (PT), activated partial thromboplastin time (APTT), fibrinogen, and other related assays. ACLTOP analyzer uses HemosIL reagents developed by Instrumentation Laboratory company (Bedford, MA, USA) to perform coagulation tests.\nFactor II activity was measured using human plasma immunodepleted of Factor II for the quantitative determination of Factor II activity in citrated plasma based on the prothrombin time (PT) assay, for which an ACLTOP coagulation analyzer manufactured by Instrumentation Laboratory (Bedford, MA, USA) was used. To evaluate the dose-dependent activity of the aptamers in whole blood, human blood samples were collected in citrate-treated tubes. Subsequently, the blood samples were incubated at room temperature for 2 h in both the absence and presence of various concentrations of thrombin aptamers. To measure the Factor II activity using the ACLTOP coagulation analyzer, plasma was separated from the cells by centrifugation at 1500×g for 10 min at 4° C. For the dose-dependent study, concentrations of 1 uM, 2 uM, 3 uM, and 4 uM of AYA1809002 and AYA1809004 were utilized.\n(§2) Modified aptamers chemically crosslinked with TAG, PEG, and cholesterol entities at the 3′ end, were purchased from IDT (Integrated DNA Technologies, Coralville, IA, USA). The impact of modified AYA1809002 and AYA1809004 aptamers on Factor II activity, PT, and APTT was evaluated using the same protocol as was used for the unmodified aptamers. Additionally, the potential for reversal was investigated using the respective reverse complement for each aptamer."}, "[2]": {"tested_on": "human citrated plasma", "assay": "Activated partial thromboplastin time (APTT) assay in human citrated plasma", "type": "biochemical", "details": "for impact of modified aptamer on APTT: 2 uM modified aptamer, 1 hour room temperature plus 2-hour incubation, versus unmodified aptamer; for increase in APTT time: 2 uM, 2 h, versus untreated control", "experimental": "as §1, with “137. Sterile human blood in sodium citrate was purchased from the Rockland Immuno- chemicals, Inc (cat #R214-0050, Pottstown, PA 19464, USA). Plasma” for “Plasma”\n140. […] APTT time was measured using the synthetic phospholipid reagent SynthASIil for quantitative determination in human citrated plasma on an ACLTOP coagulation analyzer manufactured by Instrumentation Laboratory (Bed- ford, MA, USA).\nas §2, with “146. Modified” for “Modified”"}, "[3]": {"tested_on": "human citrated plasma", "assay": "Prothrombin time (PT) assay in human citrated plasma", "type": "biochemical", "details": "for impact of modified aptamer on PT: 2 uM modified aptamer, 1 hour room temperature plus 2-hour incubation, versus unmodified aptamer; for increase in PT time: 2 uM, 2 h, versus untreated control", "experimental": "as §1\nPT time was measured using RecombiPlasTin 2G for quantitative determination in human citrated plasma of PT and Fibrinogen on an ACLTOP coagulation analyzer manufactured by Instrumentation Laboratory (Bedford, MA, USA). To assess the activity of the aptamers in a dose-dependent manner in whole blood, human blood samples were collected in citrate-treated tubes. The blood samples were then incubated at room temperature for 2 h in the absence or presence of varying concentrations of the thrombin aptamers. To measure the Prothrombin Time (PT) on the ACLTOP coagulation analyzer, plasma was obtained by centrifuging the samples at 1500×g for 10 min at 4° C. For the dose dependence study, concentrations of 1 uM, 2 uM, 3 uM, and 4 uM of AYA1809002 and AYA1809004 were utilized.\nas §2"}, "[4]": {"tested_on": "clot-bound thrombin", "details": "in vivo studies, literature; cited from earlier work"}, "[5]": {"tested_on": "modified AYA1809002 and AYA1809004 aptamers", "assay": "Reversal potential of reverse complement on modified aptamers in human citrated plasma", "type": "biochemical", "details": "5 μM reverse complement strand, additional 2-hour incubation", "experimental": "as §2, with “146. Modified” for “Modified”"}, "[6]": {"details": "Table 3, existing solution; cited from earlier work"}, "[7]": {"target": "thrombin over other serine proteases (Homo sapiens, UniProt P00734)", "details": "Table 3, existing solution; cited from earlier work"}, "[8]": {"details": "in clinical trials; cited from earlier work"}, "[9]": {"details": "requires refrigeration; cited from earlier work"}, "[10]": {"details": "Table 3, existing solution; cited from earlier work", "remark": "listed apart in the source"}, "[11]": {"target": "T2, human alpha-thrombin protein (Homo sapiens, UniProt P00734)", "T2 construct": "Native human alpha-thrombin protein; purchased ThermoFisher Scientific RP-43100; host or cells: native protein", "assay": "ELISA-based binding assay of biotinylated thrombin aptamers to thrombin protein", "details": "top nine enriched aptamers, biotinylated; FIG. 2A", "experimental": "135. Native human alpha-thrombin protein (ThermoFisher Scientific, cat #RP-43100, Waltham, MA, USA) was added to each well of a 96-well plate (Nunc MaxiSorp flat-bottom 96-well plates, ThermoFisher Scientific, cat #44-2404-21, Waltham, MA, USA) at a concentration of 250 nM in Tris-buffered saline with a volume of 100 μL per well. The plate was then incubated at 4° C. for 16 h to allow the wells to become coated with thrombin. After removing the thrombin solution, the wells were washed and blocked using blocking buffer (20 mM Tris, 150 mM NaCl pH 7.5, 2% BSA, 0.1% Tween 20 and 100 μg/mL of sheared salmon sperm DNA) for a 1 h duration. Next, biotinylated aptamers at the indicated concentrations in a volume of 100 μL were added to the wells in an incubation buffer (20 mM Tris, 150 mM NaCl pH 7.5, 0.1% BSA, 0.1% Tween 20 and 100 μg/mL of sheared salmon sperm DNA) and incubated for 1 h at room temperature. In the competition binding assay, unlabeled aptamers were added along with the biotinylated aptamers, with the unlabeled aptamers being present in a 100-fold excess compared to the biotinylated aptamers. Following three washing steps with wash buffer (20 mM Tris, 150 mM NaCl pH 7.5, 0.1% BSA and 0.1% Tween 20), streptavidin-HRP (ThermoFisher Scientific, cat #21130, Waltham, MA, USA) was added at a dilution of 1:5000 in the incubation buffer. The plate was washed again three times to remove any unbound reagents. The bound biotinylated aptamers were then detected using 3,3′,5,5′-Tetramethylbenzidine (TMB) substrate (ThermoFisher Scientific, cat #34021, Waltham, MA, USA) following the manufacturer's instructions."}, "[12]": {"tested_on": "rat whole blood", "assay": "Factor II activity, PT, APPT and TT in rat whole blood", "type": "biochemical"}, "[13]": {"tested_on": "AYA1809002", "assay": "Restoration of Factor II activity and PT time with reverse complement in whole blood", "type": "biochemical, human", "details": "1 uM AYA1809002 2 h room temperature in whole blood, then reverse complement; even at 1:1 ratio", "experimental": "144. Citrated blood collected from a donor was incubated in the absence or presence of 1 uM AYA1809002 at room temperature. After 2 h incubation, the indicated concentration of the reverse complement strand was added to the citrated blood sample. After an additional incubation time of 2 h, plasma was obtained through centrifugation. Factor II activity was measured using human plasma immunodepleted of Factor II for the quantitative determination of Factor II activity in citrated plasma based on the prothrombin time (PT) assay, for which an ACLTOP coagulation analyzer manufactured by Instrumentation Laboratory (Bedford, MA, USA) was used. The PT time was measured using RecombiPlasTin 2G for quantitative determination in human citrated plasma of PT and Fibrinogen on an ACLTOP coagulation analyzer manufactured by Instrumentation Laboratory (Bedford, MA, USA)."}}, "note": "{CholTEG} = cholesterol attached through a triethylene glycol linker; {Sp18} = hexaethylene glycol (Sp18, PEG) spacer; {Sp9} = triethylene glycol (Sp9, TEG) spacer", "data": [{"substance": "TEG-modified AYA1809004: AYA1809004 sequence with /3Sp9/ at the 3′ end (DNA TCGTCAAGGTACGGTTGGGGGGGTGGGTGTTGACGTTGAA; DNA, 3' {Sp9}, backbone and methylation of C not given here)", "values": [{"measurement": "impact of modified aptamer on Factor II activity", "setting": "[1]", "result": "noticeable inhibition"}, {"measurement": "impact of modified aptamer on APTT", "setting": "[2]", "result": "slight increase"}, {"measurement": "impact of modified aptamer on PT", "setting": "[3]", "result": "slight increase"}]}, {"substance": "PEG-modified AYA1809004: AYA1809004 sequence with /3Sp18/ at the 3′ end (DNA TCGTCAAGGTACGGTTGGGGGGGTGGGTGTTGACGTTGAA; DNA, 3' {Sp18}, backbone and methylation of C not given here)", "values": [{"measurement": "impact of modified aptamer on Factor II activity", "setting": "[1]", "result": "noticeable inhibition"}, {"measurement": "impact of modified aptamer on APTT", "setting": "[2]", "result": "slight increase"}, {"measurement": "impact of modified aptamer on PT", "setting": "[3]", "result": "slight increase"}]}, {"substance": "heparin", "values": [{"measurement": "inhibition of clot-bound thrombin", "setting": "[4]", "result": 35, "unit": "%"}]}, {"substance": "reverse complement of AYA1809004: aptamer antidote TTCAACGTCAACACCCACCCCCCCAACCGTACCTTGACGA (DNA, backbone and methylation of C not given here)", "values": [{"measurement": "reversal of modified aptamers' effects on Factor II activity, PT and APTT", "setting": "[5]", "result": "effectively restored"}]}, {"substance": "dabigatran", "values": [{"measurement": "reduction in Factor II activity", "setting": "[1]", "result": 80, "unit": "%"}, {"measurement": "Half-life", "setting": "[6]", "result": "Half-life of 12-17 hours"}, {"measurement": "Renal Clearance", "setting": "[6]", "result": "~80", "unit": "%"}, {"measurement": "selectivity", "setting": "[7]", "result": "~300-fold selectivity"}, {"measurement": "increase in APTT time", "setting": "[2]", "result": "three-fold increase"}, {"measurement": "increase in PT time", "setting": "[3]", "result": "two-fold increases"}, {"measurement": "life-threatening bleeding risks", "setting": "[8]", "result": "bleeding risks (′ 3.3%"}, {"measurement": "shelf life", "setting": "[9]", "result": "shelf life 36 months"}, {"measurement": "Onset of Action: peak effect", "setting": "[10]", "result": "Peak effect 2-3 hours"}]}, {"substance": "AYA1809007: ssDNA thrombin aptamer AGGGGCTCTAGGGTGGGTAGGATGGTGAGACCGCAGCGT (DNA, backbone and methylation of C not given here; further chemistry not fully specified)", "values": [{"measurement": "reduction in Factor II activity", "setting": "[1]", "result": "more than 75%"}, {"measurement": "binding to immobilized human thrombin (absorbance at 450 nm)", "setting": "[11]", "result": "strong binding capabilities"}, {"measurement": "increase in APTT time", "setting": "[2]", "result": "three-fold increase"}, {"measurement": "increase in PT time", "setting": "[3]", "result": "two-fold increases"}]}, {"substance": "HD1: first anti-thrombin DNA aptamer, 15-mer 5′-GGTTGGTGTGGTTGG-3′ binding exosite I (DNA, backbone not given here)", "values": [{"measurement": "inhibition of clot-bound thrombin", "setting": "[4]", "result": "> 80", "unit": "%"}]}, {"substance": "PEG-modified AYA1809002: AYA1809002 sequence with /3Sp18/ at the 3′ end (DNA GCGGTGTTGCTGGGGTTGGGAGGTTGGAGGAAGCAATCGC; DNA, 3' {Sp18}, backbone and methylation of C not given here)", "values": [{"measurement": "APPT in rat whole blood", "setting": "[12]; dose-dependent manner", "result": "extend"}, {"measurement": "Factor II activity in rat whole blood", "setting": "[12]; dose-dependent manner", "result": "inhibit"}, {"measurement": "PT in rat whole blood", "setting": "[12]; dose-dependent manner", "result": "extend"}, {"measurement": "TT in rat whole blood", "setting": "[12]; dose-dependent manner", "result": "extend"}]}, {"substance": "cholesterol-modified AYA1809004: AYA1809004 sequence with /3CholTEG/ at the 3′ end; Table 2 misprints the name (DNA TCGTCAAGGTACGGTTGGGGGGGTGGGTGTTGACGTTGAA; DNA, 3' {CholTEG}, backbone and methylation of C not given here)", "values": [{"measurement": "impact of modified aptamer on Factor II activity", "setting": "[1]", "result": "no significant impact"}, {"measurement": "impact of modified aptamer on APTT", "setting": "[2]", "result": "no significant impact"}, {"measurement": "impact of modified aptamer on PT", "setting": "[3]", "result": "no significant impact"}]}, {"substance": "reverse complement of AYA1809002: aptamer antidote GCGATTGCTTCCTCCAACCTCCCAACCCCAGCAACACCGC (DNA, backbone and methylation of C not given here)", "values": [{"measurement": "neutralization of aptamer effects in rat whole blood", "setting": "[12]; reverse complement strand", "result": "neutralized the observed effects"}, {"measurement": "restoration of Factor II activity by reverse complement", "setting": "[13]", "result": "effectively restored"}, {"measurement": "restoration of PT time by reverse complement", "setting": "[13]", "result": "effectively restored"}, {"measurement": "reversal of modified aptamers' effects on Factor II activity, PT and APTT", "setting": "[5]", "result": "effectively reverses the observed effects"}]}]}
